We go through 40 molecules from patent publication US9464048B2, “5-oxo-ETE receptor antagonist compounds” (THE ROYAL INSTITUTION FOR THE ADVANCEMENT OF …, priority 2009, dated 2016).

In general, pIC50 refers to −log10 of the IC50, conventionally taken in molar units. As usually defined, the IC50 is the concentration at which inhibition is half-maximal.

pIC50: −log10 of the molar value. Some results are limits rather than exact numbers.

OXE receptor, sequence (Q8TDS5 whole entry): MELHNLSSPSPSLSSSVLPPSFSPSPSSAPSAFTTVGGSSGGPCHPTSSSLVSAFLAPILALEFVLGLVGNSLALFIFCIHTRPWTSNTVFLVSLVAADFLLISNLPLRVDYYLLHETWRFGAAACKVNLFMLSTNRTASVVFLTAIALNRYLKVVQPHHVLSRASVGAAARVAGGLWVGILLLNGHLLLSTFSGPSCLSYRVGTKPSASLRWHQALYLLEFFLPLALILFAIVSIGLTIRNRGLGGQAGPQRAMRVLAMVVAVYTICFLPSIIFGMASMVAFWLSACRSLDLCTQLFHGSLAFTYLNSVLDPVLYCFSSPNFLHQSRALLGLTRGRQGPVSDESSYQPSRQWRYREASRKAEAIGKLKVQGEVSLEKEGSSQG

One assay addresses OXE receptor (Homo sapiens, UniProt Q8TDS5). In words: 5-oxo-ETE-induced calcium mobilization in human granulocytes. Type of assay: cell-based. Set-up: Human granulocytes 95% neutrophils) are prepared from whole blood; endogenous in cells; host or cells: human blood granulocytes (>=95% neutrophils).
Settings: not given
As to the method: Primary Screening for Antagonist Activity: Calcium Mobilization in Human Granulocytes
Human granulocytes 95% neutrophils) are prepared from whole blood using Dextran 500 to remove red blood cells, followed by centrifugation over Ficoll-Paque to remove mononuclear cells and hypotonic lysis of any remaining red blood cells. After centrifugation the granulocytes are suspended in Ca^++/Mg^++-free phosphate-buffered saline (PBS). Granulocytes (10^7 cells/nil) are incubated with the acetoxymethyl ester of indo-1 ([…]) for 30 min, followed by washing twice with PBS^− and resuspension in the same medium to obtain a final cell concentration of 3.22×10^6 cells/ml. Five minutes prior to commencing data acquisition, Ca^++ and Mg^++ are added to give final concentrations of 1.8 and 1 mM, respectively. Calcium measurements are performed at 37° C. using a spectrofluorometer equipped with a temperature-controlled cuvette holder and a magnetic stirrer. The excitation and emission wavelengths are 331 nm and 410 nm, respectively. Following stabilization of the baseline, fluorescence is measured for 1 min, prior to the addition of either vehicle or various concentrations of a potential 5-oxo-ETE antagonist. Two min later, 5-oxo-ETE (10 nM) is added, followed 1 min later by digitonin (final concentration 0.1%). Data acquisition is terminated after a further 0.5 min. In some cases LTB4 (10 nM) is added 2 min after 5-oxo-ETE, followed 0.5 min later by addition of digitonin. Fmax is determined from fluorescence measurements after the addition of digitonin, whereas Fmin is determined after determination of autofluorescence as described in the literature (Gelfand et al, J. Biol. Chem. 261:11520 (1986)). A dissociation constant of 250 nM for the indo-1/Ca^++ complex is used to calculate [Ca^++]i. […] Measurement of Actin Polymerization in Eosinophils
Background: Calcium flux is commonly read through the fluorescence of an indicator in the cells.
For `CCCCCCc1c(C(=O)c2cccc(C(=O)O)c2)c2cc(Cl)ccc2n1C` [Compound 108, 3-(5-Chloro-2-hexyl-1-methyl-1H-indole-3-carbonyl)benzoic acid], the negative logarithm of the IC50 (pIC50) is 7.19.

Staying with this assay, now noted: 5-oxo-ETE 10 nM; human granulocytes; Table 2; read-out: IC50 (μM) Ca^++.
As to `CCCCCCc1c(C(=O)C[C@@H](C)CC(=O)O)c2cc(Cl)ccc2n1C` [Compound 100, 5-(5-chloro-2-hexyl-1-methyl-1H-indol-3-yl)-3-(R)-methyl-5-oxopentanoic acid], the IC50 turned out to be 0.125 µM.

For the molecule `CCCCCCc1c(C(=O)CC(C)CC(=O)O)c2cc(Cl)ccc2n1CC` (centres unmarked) [Compound 101, 5-(5-Chloro-1-ethyl-2-hexyl-1H-indol-3-yl)-3-methyl-5-oxo-pentanoic acid], the IC50 turned out to be 0.35 µM.

Turning to `CCCCCCc1c(C(=O)C[C@@H](C)CC(=O)NC(C)c2ccccc2)c2cc(Cl)ccc2n1C` (stereo partly drawn) [Compound 106, 5-(5-Chloro-2-hexyl-1-methyl-1H-indol-3-yl)-3-(R)-methyl-5-oxo-pentanoic acid (1-phenyl-ethyl)-amide], the IC50 is over 10 µM.

In the case of `CC(C)CCCCc1cc2cc(Cl)ccc2n1C(=O)CC(C)CC(=O)O` (racemic) [Compound 115, 5-[5-Chloro-2-(5-methyl-hexyl)-indol-1-yl]-3-methyl-5-oxo-pentanoic acid], the IC50 is 2 µM.

As to `CCCCCCc1c(C(=O)CC(C)CC(=O)O)c2ccc(Cl)cc2n1C` (centres unmarked) [Compound 104, 5-(6-Chloro-2-hexyl-1-methyl-1H-indol-3-yl)-3-methyl-5-oxo-pentanoic acid], the IC50 is 0.119 µM.

For `CCCCCCc1cc2ccc(Cl)cc2n1C(=O)CCC(C)(C)C(=O)O` [Compound 116, 5-(6-Chloro-2-hexyl-indol-1-yl)-2,2-dimethyl-5-oxo-pentanoic acid], the IC50 is over 10 µM.

With `CCCCCCCc1c(C(=O)CC(C)CC(=O)O)c2cc(Cl)ccc2n1C` (racemic) [Compound 113, 5-(5-Chloro-2-heptyl-1-methyl-1H-indol-3-yl)-3-methyl-5-oxo-pentanoic acid], the IC50 came to 0.035 µM.

Consider `CC(C)CCCCc1c(C(=O)CC(C)CC(=O)O)c2cc(Cl)ccc2n1C` (centres unmarked) [Compound 114, 5-[5-Chloro-1-methyl-2-(5-methyl-hexyl)-1H-indol-3-yl]-3-methyl-5-oxo-pentanoic acid], for which the IC50 came to 0.011 µM.

On to `CCCCCCc1c(C(=O)CCCC(=O)O)c2ccccc2n1C` [Compound 5, 5-(2-Hexyl-1-methyl-1H-indol-3-yl)-5-oxo-pentanoic acid], for which the IC50 amounted to 2.5 µM.

Consider `CCCCCCc1c(C(=O)CC(C)CC(=O)O)c2ccccc2n1CC` (centres unmarked) [Compound 102, 5-(1-Ethyl-2-hexyl-1H-indol-3-yl)-3-methyl-5-oxo-pentanoic acid], for which the IC50 came to 1.6 µM.

On to `CCCCCCc1c(C(=O)CC(C)CC(=O)O)c2ccccc2n1C` (centres unmarked) [Compound 6, 5-(2-Hexyl-1-methyl-1H-indol-3-yl)-3-methyl-5-oxo-pentanoic acid], for which the IC50 amounted to 0.34 µM.

Consider `CC(C)CCCCc1c(C(=O)CC(C)CC(=O)O)c2ccc(Cl)cc2n1C` (racemic) [Compound 109, 5-[6-Chloro-1-methyl-2-(5-methyl-hexyl)-1H-indol-3-yl]-3-methyl-5-oxo-pentanoic acid], for which the IC50 stood at 0.175 µM.

As to `CCCCCCc1c(C(=O)CC(C)CC(=O)NC(C)c2ccccc2)c2cc(Cl)ccc2n1C` (centres unmarked) [Compound 105, 5-(5-chloro-2-hexyl-1-methyl-1H-indol-3-yl)-3-methyl-5-oxo-N-(1-phenylethyl)pentanamide], the IC50 was over 10 µM.

Take `CC(C)CCCCc1cc2ccc(Cl)cc2n1C(=O)CC(C)CC(=O)O` (centres unmarked) [Compound 110, 5-[6-Chloro-2-(5-methyl-hexyl)-indol-1-yl]-3-methyl-5-oxo-pentanoic acid]: the IC50 is 1.03 µM.

In the case of `CCCCCCc1c(C(=O)CC(C)CC(=O)O)c2cc(Cl)ccc2n1C` (stereo in doubt) [Compound 107, 5-(5-Chloro-2-hexyl-1-methyl-1H-indol-3-yl)-3-(R)-methyl-5-oxo-pentanoic acid], the IC50 turned out to be 0.009 µM.

The assay is the same for the next values; noted with them: Table 3; position of hexyl/hexenyl on the scaffold; readout not given, values match Ca^++; read-out: IC50.
`CCCCCCc1cccc2ccn(C(=O)CCCC(=O)O)c12` [Compound 27, 5-(7-Hexyl-indol-1-yl)-5-oxo-pentanoic acid]: the pIC50 is under 4.52.

`CCCC/C=C/c1ccc2c(ccn2C(=O)CCCC(=O)O)c1` [Compound 28, 5-(5-hex-1-enyl-indol-1-yl)-5-oxo-pentanoic acid]: the pIC50 is 5.19.

Consider `CCCCCCc1ccc2ccn(C(=O)CCCC(=O)O)c2c1` [Compound 31, 5-(6-Hexyl-indol-1-yl)-5-oxo-pentanoic acid], for which the pIC50 is under 5.00.

Consider `CCCCCCc1ccc2c(ccn2C(=O)CCCC(=O)O)c1` [Compound 30, 5-(5-Hexyl-indol-1-yl)-5-oxo-pentanoic acid], for which the pIC50 was under 4.52.

Consider `CCCC/C=C/c1cccc2ccn(C(=O)CCCC(=O)O)c12` [Compound 32, 5-(7-Hex-1-enyl-indol-1-yl)-5-oxo-pentanoic acid], for which the pIC50 is under 5.00.

For `CCCCCCc1cn(C(=O)CCCC(=O)O)c2ccccc12` [Compound 7, 5-(3-Hexyl-indol-1-yl)-5-oxo-pentanoic acid], the pIC50 is under 4.52.

Still in this assay, the particulars now being: Table 4; R1/R2/R3 variation; readout not given; read-out: IC50.
Take `CCCCCCn1cc(C(=O)CCCC(=O)O)c2ccccc21` [Compound 8, 5-(1-Hexyl-1H-indol-3-yl)-5-oxo-pentanoic acid]: the pIC50 was under 4.52.

Turning to `CCCCCCc1[nH]c2ccccc2c1C(=O)CCCC(=O)O` [Compound 10, 5-(2-Hexyl-1H-indol-3-yl)-5-oxo-pentanoic acid], the pIC50 was 4.96.

As for `CCCCCCc1c(C(=O)CCCC(=O)O)c2ccccc2n1C` [Compound 5, 5-(2-Hexyl-1-methyl-1H-indol-3-yl)-5-oxo-pentanoic acid], the pIC50 is 5.43.

For `CCCCCCc1c(C(=O)CCCC(=O)O)n(C)c2ccccc12` [Compound 11, 5-(3-Hexyl-1-methyl-1H-indol-2-yl)-5-oxo-pentanoic acid], the pIC50 is under 4.52.

Still in this assay, the particulars now being: Table 5; alkyl chain variation; readout not given, values match Ca^++; read-out: IC50.
For the molecule `CCCCc1cc2ccccc2n1C(=O)CCCC(=O)O` [Compound 26, 5-(2-Butyl-indol-1-yl)-5-oxo-pentanoic acid], the pIC50 was under 4.52.

Regarding `CCCCCCc1cc2cc(Cl)ccc2n1C(=O)CCCC(=O)O` [Compound 29, 5-(5-Chloro-2-hexyl-indol-1-yl)-5-oxo-pentanoic acid], the pIC50 is 5.85.

Turning to `CCCCCc1cc2ccccc2n1C(=O)CCCC(=O)O` [Compound 18, 5-Oxo-5-(2-pentyl-indol-1-yl)-pentanoic acid], the pIC50 is 5.96.

Take `CCCC/C=C/c1cc2ccccc2n1C(=O)CCCC(=O)O` [Compound 12, 5-(2-Hex-1-enyl-indol-1-yl)-5-oxo-pentanoic acid]: the negative logarithm of the IC50 (pIC50) is 5.48.

With `CCCCCCCCc1cc2ccccc2n1C(=O)CCCC(=O)O` [Compound 25, 5-(2-Octyl-indol-1-yl)-5-oxo-pentanoic acid], the pIC50 was 5.57.

On to `CCCCCCCCC/C=C\c1cc2ccccc2n1C(=O)CCCC(=O)O` [Compound 20, 5-Oxo-5-(2-undec-1-enyl-indol-1-yl)-pentanoic acid], for which the pIC50 was 4.70.

In the case of `CCCCCCCc1cc2ccccc2n1C(=O)CCCC(=O)O` [Compound 33, 5-(2-Heptyl-indol-1-yl)-5-oxo-pentanoic acid], the pIC50 is 5.82.

With `CCCCCCCCCCCc1cc2ccccc2n1C(=O)CCCC(=O)O` [Compound 23, 5-Oxo-5-(2-undecyl-indol-1-yl)-pentanoic acid], the pIC50 is 4.60.

The assay is the same for the next values; noted with them: Table 6; carboxyl side chain variation; readout not given, values match Ca^++; read-out: IC50.
On to `CCCCCCc1cc2ccccc2n1C(=O)C[C@@H](C)CC(=O)O` [Compound 3, 5-(2-Hexyl-indol-1-yl)-3(R)-methyl-5-oxo-pentanoic acid], for which the pIC50 is 6.10.

Turning to `CCCCCCc1cc2ccccc2n1CCCC(=O)O` [Compound 16, 4-(2-Hexyl-indol-1-yl)-butyric acid], the pIC50 was 5.35.

With `CCCCCCc1cc2ccccc2n1C(=O)CCC(=O)O` [Compound 14, 4-(2-Hexyl-indol-1-yl)-4-oxo-butyric acid], the pIC50 was under 5.00.

For `CCCCCCc1cc2ccccc2n1C(=O)CC(C)(C)CC(=O)O` [Compound 21, 5-(2-Hexyl-indol-1-yl)-3,3-dimethyl-5-oxo-pentanoic acid], the pIC50 was 4.89.

Still in this assay, the particulars now being: Table 7; alkyl variation; readout not given, values match Ca^++; read-out: IC50.
As to `CCCCCc1cc2ccccc2n1C(=O)CC(C)CC(=O)O` (centres unmarked) [Compound 19, 3-Methyl-5-oxo-5-(2-pentyl-indol-1-yl)-pentanoic acid], the pIC50 was 7.00.

For the molecule `CCCC/C=C/c1ccc2c(ccn2C(=O)CC(C)CC(=O)O)c1` (centres unmarked) [Compound 17, 5-(5-Hex-1-enyl-indol-1-yl)-3-methyl-5-oxo-pentanoic acid], the pIC50 is 5.00.

As for `CCCCCCCc1cc2ccccc2n1C(=O)CC(C)CC(=O)O` (centres unmarked) [Compound 34, 5-(2-Heptyl-indol-1-yl)-3-methyl-5-oxo-pentanoic acid], the negative-log IC50 (pIC50) was 6.92.
